Reference: paper PMC9686928, “10-mer and 9-mer WALK Peptides with Both Antibacterial and Anti-Inflammatory Activities” (Antibiotics, 2022)
Where no end group is shown, it is not given here.

How the values were obtained:
[1] = test system: Shigella dysentariae ATCC 9752; experiment: microbe, parasite or virus in culture; format: cell-based; details: Gram-negative; broth microdilution, Luria-Bertani broth, 1–64 μg/mL two-fold serial dilutions; triplicate
Protocol: (§1) The antimicrobial activity of each peptide was assessed against four strains, including two Gram-positive (Bacillus subtilis ATCC 6633 and Staphylococcus aureus ATCC 6538p) and two Gram-negative bacteria (Escherichia coli ATCC 25922 and Shigella dysentariae ATCC 9752) cultured in Luria-Bertani broth media. Antibacterial susceptibility was determined as the MIC value, which was measured using the standard broth microdilution method as described previously. […] Two conventional antibiotics, ampicillin and kanamycin, were used as controls to confirm antibiotic susceptibility. The tests were performed in triplicate, and the MIC values that were reproduced twice or thrice in the three independent measurements were employed to calculate the GM value.

[2] = test system: Escherichia coli ATCC 25922; experiment: microbe, parasite or virus in culture; format: cell-based; details: Gram-negative; broth microdilution, Luria-Bertani broth, 1–64 μg/mL two-fold serial dilutions; triplicate
Protocol: as §1

[3] = test system: Bacillus subtilis ATCC 6633; experiment: microbe, parasite or virus in culture; format: cell-based; details: Gram-positive; broth microdilution, Luria-Bertani broth, 1–64 μg/mL two-fold serial dilutions; lowest concentration that completely inhibited growth; triplicate
Protocol: as §1

[4] = test system: Staphylococcus aureus ATCC 6538p; experiment: microbe, parasite or virus in culture; format: cell-based; details: Gram-positive; broth microdilution, Luria-Bertani broth, 1–64 μg/mL two-fold serial dilutions; triplicate
Protocol: as §1

[5] = test system: LPS-stimulated RAW264.7 cells; experiment: Nitric oxide (NO) production, Griess reaction assay; format: cell-based, murine; details: LPS 100 ng/mL 16 h, compared with omiganan and WALK155.03 (8 μM)
Protocol: (§2) The macrophage cells were seeded (3 × 10^4 cells/well) and incubated in 96-well plates for 24 h, followed by pretreatments with the WALK peptides at designated concentrations for 5 min and subsequent stimulation with 100 ng/mL of LPS for 16 h. The nitrite concentration in the culture medium was determined using the Griess reaction assay. Briefly, the culture supernatant (100 μL) was mixed with an equal volume of Griess reagent (1% sulfanilamide, 0.1% N-1-naphthyl ethylenediamine) and incubated for 5 min. The absorbance of the resulting chromophoric azo-derivative molecules was measured at 550 nm using a microplate reader with a fresh culture medium as a blank. The amount of nitrite in each sample was determined using a standard curve generated using a range of dilutions of sodium nitrite solutions.

[6] = test system: IL-1β, IL-6 and TNF-α mRNA in LPS-stimulated RAW264.7 cells; experiment: Quantitative real-time PCR of pro-inflammatory cytokines; format: cell-based, murine; details: LPS 100 ng/mL 3 h, real-time qPCR
Protocol: (§3) Figure 5 Anti-inflammatory effects of WALK244.04 peptide in Raw264.7 cells. The cells were pretreated with the peptide at indicated concentrations for 5 min, followed by stimulation with LPS (100 ng/mL) to induce inflammatory responses. (A) iNOS, COX-2, and pro-IL-1β expression levels were estimated by Western blot analysis after 16 h of LPS treatment. (B) The mRNA expression of IL-1β, IL-6, and TNF-α was determined by quantitative real-time PCR upon 3 h of stimulation with LPS. […] (C) The phosphorylation of STAT1 and TBK1 was examined by Western blot analysis at different time points after the LPS treatment.
Figure 6 Anti-inflammatory effects of WALK243.04 peptide in Raw264.7 cells. […] (B) The mRNA expression of IL-1β, IL-6, and TNF-α was determined by quantitative real-time PCR after 3 h of stimulation with LPS. […] (C) The phosphorylation of STAT1 and TBK1 was analyzed by Western blot analysis at different time points after LPS treatment.
The cells were stimulated with LPS (100 ng/mL) for 3 h in the presence or absence of peptide samples, and the total RNA was extracted using a HiGene™ Total RNA Prep Kit (BIOFACT, Daejeon, Korea). cDNA was synthesized from 500 ng of total RNA using a SuperiorScript III cDNA synthesis kit (Enzynomics, Daejeon, Korea). […] The resulting 2^−ΔΔCt value for each group was used to calculate the relative expression ratio of the detected mRNA.

[7] = test system: phosphorylation of STAT1 and TBK1 in LPS-stimulated RAW264.7 cells; experiment: Immunoblot analysis of TRIF-dependent signaling; format: cell-based, murine; details: Western blot
Protocol: as §3
TRIF-dependent signaling, which is triggered by association with internalized TLR4 upon stimulation by LPS, is known to be mediated by the phosphorylation of the downstream kinase TANK binding kinase-1 (TBK-1) to produce type-I interferons. These interferons induce the expression of downstream target genes via the phosphorylation of the transcription factor signal transducer and the activator of transcription-1 (STAT-1).
The cells were lysed using a RIPA buffer (iNtRON) containing protease and phosphatase inhibitor cocktails. […]

[8] = test system: two Gram-positive and two Gram-negative bacterial strains; experiment: Antimicrobial assay, MICs over the four strains (geometric mean); format: cell-based, B. subtilis, S. aureus, E. coli, S. dysentariae; details: for GM, geometric mean of MICs: geometric mean of the MICs against the four strains
Protocol: as §1

[9] = test system: iNOS, COX-2 and pro-IL-1β in LPS-stimulated RAW264.7 cells; experiment: Immunoblot analysis of pro-inflammatory mediators; format: cell-based, murine; details: peptide pretreatment 5 min, LPS 100 ng/mL 16 h, Western blot
Protocol: as §3
as §3, with “Figure 6” for “Figure 5”, “of WALK243.04” for “of WALK244.04”, “PCR after” for “PCR upon”, “was analyzed” for “was examined”, “after” for “after the”
The cells were lysed using a RIPA buffer (iNtRON) containing protease and phosphatase inhibitor cocktails. The cell lysates were resolved using 10% SDS-PAGE and transferred to nitrocellulose membranes, which were blocked for 1 h at room temperature (approximately 23 °C) using phosphate-buffered saline with 0.01% Tween-20 (PBST, Merck Korea, Seoul, Korea) containing 10% fat-free dried milk. The blocked membranes were then incubated overnight with primary antibodies at 4 °C, followed by further incubation with horseradish peroxidase-conjugated secondary antibodies for 1 h at room temperature. The membranes were developed using the enhanced chemiluminescence (ECL) detection kit (Advansta, San Jose, CA, USA) and visualized using a luminescent image analyzer (Amersham imager 680, Cytiva Korea, Incheon, Korea).

[10] = test system: LPS-stimulated J774A.1 cells; experiment: Nitric oxide (NO) production, Griess reaction assay; format: cell-based, murine; details: LPS 100 ng/mL 16 h
Protocol: NT, non-treated; LPS, lipopolysaccharides. (A) Cytotoxicity was assessed using the MTT assay. […] (B) Anti-inflammatory potential deduced by NO assay.
as §2

human red blood cells = details: for MHC, minimal hemolytic concentration: lowest concentration showing 5% or more hemolysis, human red blood cells 10% v/v in PBS, 1 h, 1–64 μg/mL, A550, relative to 0.2% Triton X-100, triplicate
Protocol: Briefly, suspensions of human red blood cells (10% v/v in PBS) were treated for 1 h with various concentrations (1–64 μg/mL, two-fold serial dilutions) of peptides, followed by measurement of the absorbance of the supernatant at 550 nm. The relative attenuation was determined as the percentage of hemolysis compared to that of the blood suspension treated with 0.2% Triton X-100. The tests were performed in triplicate, and the average values of three independent measurements were recorded.

J774A.1 cells = details: peptides 8, 4 and 2 μM, 16 h
Protocol: (A) Cytotoxicity was assessed using the MTT assay. The cells were treated with lipopolysaccharides (LPS, 100 ng/mL) or peptides (8–2 μM, two-fold serial dilutions) for 16 h, followed by estimating the cell viability as the percentage of surviving cells compared to that of the control cells.
(§4) Macrophage cells seeded in 96-well cell culture plates at a density of 3 × 10^4 cells/well were incubated for 24 h, followed by treatment with LPS or individual WALK peptides and subsequent incubation for 16 h. Cell viability was then assessed by the conventional MTT assay. Briefly, the medium in each well was replaced with 100 μL of RPMI medium containing MTT (500 μg/mL). After 2 h of incubation, the medium was discarded and the insoluble formazan in each well was dissolved in 100 μL of DMSO with shaking. The absorbance of the solution at 550 nm was measured using a spectrophotometric microplate reader to determine the percentage of cell viability relative to that of control cells.

RAW264.7 cells = details: at the concentrations tested, 16 h
Protocol: as §4

## LLKWLKKWLK-NH2 [WALK244.04]
[1]
  MIC, S. dysentariae: 8 µg/mL
[2]
  MIC, E. coli: 4 µg/mL
[3]
  MIC, B. subtilis: 4 µg/mL
[4]
  MIC, S. aureus: 4 µg/mL
[5]
  NO inhibitory activity: most potent NO inhibitory activity
[6]
  mRNA expression of IL-1β, IL-6 and TNF-α: effectively suppressed
[7]; after 1 h of LPS treatment
  TBK-1 phosphorylation: attenuated
[7]; after 4 h of LPS treatment
  STAT-1 phosphorylation: strong inhibition
[8]; against both Gram-positive and Gram-negative bacterial strains, summary
  MIC values against the strains tested: approximately 4 μg/mL
[8]
  GM, geometric mean of MICs: 4.8 µg/mL
[9]
  COX-2 and pro-IL-1β expression: downregulation
  iNOS expression: substantial downregulation
[10]; peptide 8 μM
  NO inhibition at 8 μM: near-complete NO inhibition
[10]; peptides 8, 4 and 2 μM, pretreatment 5 min, nitrite by Griess
  inhibitory effect against NO production: dose-dependent inhibitory effect
Human red blood cells; at concentrations under 64 μg/mL, human erythrocytes
  hemolytic activity: no significant hemolytic activity
Human red blood cells
  MHC, minimal hemolytic concentration: 64 µg/mL
J774A.1 cells
  cytotoxicity (MTT assay): no significant cytotoxicity

## LLKWLKKWL-NH2 [WALK243.04]
[1]
  MIC, S. dysentariae: 4 µg/mL
[2]
  MIC, E. coli: 4 µg/mL
[3]
  MIC, B. subtilis: 4 µg/mL
[4]
  MIC, S. aureus: 4 µg/mL
[5]
  NO inhibitory activity: superior NO inhibition compared to other positive controls
RAW264.7 cells
  cytotoxicity (MTT assay): did not demonstrate significant cytotoxicity
[8]
  GM, geometric mean of MICs: 4.0 µg/mL
[9]
  COX-2 and pro-IL-1β expression: less potent or weaker than those of WALK244.04
  iNOS expression: less potent or weaker than those of WALK244.04
Human red blood cells
  MHC, minimal hemolytic concentration: 64 µg/mL
